The record followed here is PubChem BioAssay (NCI).

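All cell lines were grown in 96-well plates and treated with compound for 48 hours. TGI marks complete inhibition of growth.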 Where only a bound is given, the exact number is not on record here.

Assay in all cases: growth of human tumour cells (NCI), 48 h
Experiment [1] has as its system CAKI-1 renal.
The subject of experiment [2] is CCRF-CEM leukemia.
The subject of experiment [3] is COLO 205 colon.
The test system of experiment [4] is HL-60(TB) leukemia.
For experiment [5], the system named is NCI-H460 lung.
The test system of experiment [6] is RXF 393 renal.
Experiment [7] has as its system SF-268 CNS.
Experiment [8] relates to SF-539 CNS.
The test system of experiment [9] is HCC-2998 colon.
Experiment [10] deals with BT-549 breast.

Consider `O=C1c2ccccc2C2C1N2C(=O)C(F)(F)F` (stereo not given), for which the TGI in experiment [1] was > 100 µM; in experiment [2], 70.9 µM; in experiment [3], > 100 µM; in [4], 91.5 µM; in experiment [5], > 100 µM; in experiment [6] it was > 100 µM. The TGI in experiment [7] and in experiment [8] was > 100 µM each time.
For the compound `COc1nc(N)c(C(=O)CCl)c(=O)n1C`, the TGI came out at 23.4 µM in [1]; 79.8 µM in experiment [2]; 30.1 µM in experiment [3]; 23 µM in experiment [9]; 5.61 µM in [4]; 39.5 µM in experiment [5]. Also, the results for the TGI in experiment [6], in experiment [7] and in experiment [8] were 20.6 µM, 55.2 µM and 32.6 µM, respectively.
For the compound `CNC(=O)C(C)C1CCC2(C)C=CC(=O)C(C)=C2C1O` (stereo not given), the TGI in experiment [1] was 91.7 µM; in experiment [2], > 100 µM; in experiment [3] it was > 64.7 µM; in experiment [9], > 100 µM; in experiment [4], > 100 µM; in experiment [5], > 100 µM. The TGI in experiment [6], in [7] and in experiment [8] was > 100 µM throughout.
With `Cc1cccc2c(=O)cc(-c3ccccc3)[nH]c12`, the TGI in [2] was > 100 µM; in experiment [3] it was 51.5 µM; in experiment [9], 18.1 µM; in experiment [4], > 100 µM; in experiment [5], > 100 µM; in [6], 38.2 µM. Further, the TGI in [7] is > 100 µM; in [8] it was 37.1 µM.
For the compound `CCN(CC)CCC(=O)Nc1ccc2c(c1)C(=O)c1ccc(NC(=O)CCN(CC)CC)cc1C2=O`, the TGI in experiment [1] was 14.7 µM; in experiment [2], 18.5 µM; in [3], 14.4 µM; in experiment [9], > 100 µM; in [4], 16.7 µM; in [5], 2.74 µM. The TGI in experiment [6] stood at 9.27 µM; in experiment [7], 18.9 µM; in [8], 15.3 µM.
For `C[C@]12CC[C@H](O)CC1=CC[C@@H]1C2CC[C@]2(C)C(=O)N(N)C(=O)CC12` (stereo not given in full), the TGI in [1], in [2], in experiment [3], in experiment [9], in experiment [4] and in experiment [5] was > 100 µM each time. Besides, the TGI in [6], in [7] and in experiment [8] was > 100 µM throughout.
For `[N-]=[N+]=Nc1cc(=O)oc2ccccc12`, the TGI in experiment [1], in experiment [2], in experiment [3], in [4], in experiment [5] and in experiment [6] was > 100 µM throughout. Moreover, the TGI in [7] and in experiment [8] was > 100 µM throughout.
As for `CC(N)Cc1ccc(C(=O)Cl)cc1` (stereo not given), the TGI in experiment [1], in experiment [2], in [3], in experiment [9], in experiment [5] and in experiment [6] was > 100 µM in each case. Moreover, the TGI in experiment [7] and in [8] was > 100 µM in each case.
As for `O=C1C(=Cc2ccc(O)cc2)N=C(c2ccccc2)N1n1c(-c2ccccc2)nc2ccccc2c1=O`, the TGI in [10], in [1], in [2], in experiment [3], in experiment [9] and in experiment [4] was > 100 µM in each case. In addition, the TGI in experiment [7] and in [8] was > 100 µM in each case.
In the case of `O=C(O)c1cccc2c1/C(=N/Nc1ccccc1)CC2`, the TGI in [1], in [2], in [9], in [5], in experiment [6] and in experiment [7] was > 100 µM in each case. Further, the TGI in experiment [8] was > 100 µM.
Regarding `Cc1cc(=O)[nH]c(NN2C(Cl)C(=O)C2c2ccccc2O)n1` (stereo not given), the TGI is > 100 µM in experiment [1]; > 100 µM in experiment [2]; > 76.8 µM in experiment [3]; > 100 µM in experiment [9]; > 100 µM in experiment [4]; > 100 µM in experiment [5]. Moreover, the TGI was > 100 µM in experiment [6], > 100 µM in [7] and > 58.6 µM in experiment [8].
Consider `Cc1ccc(SCC(CSCCO)OCn2cnc3c2NC(N)=NC32OCCO2)cc1` (stereo not given), for which the TGI in experiment [1], in experiment [2], in [9], in experiment [4], in experiment [5] and in experiment [6] was > 100 µM in each case. For the same compound, the TGI in experiment [7] and in experiment [8] was > 100 µM each time.
`CCCCCCCCCCCOc1ccc(C(=O)C(=O)c2ccc(OCCCCCCCCCCC)c(OCCCCCCCCCCC)c2)cc1OCCCCCCCCCCC`: the TGI in experiment [1], in experiment [2], in experiment [3], in experiment [9], in experiment [4] and in experiment [5] was > 100 µM each time. In addition, the TGI in experiment [7] and in experiment [8] was > 100 µM throughout.
In the case of `CC1C=C(CCCCCCCCCCCC[C@@H](O)[C@@H]2CC[C@@H]([C@@H]3CC[C@@H](C(O)CCCCCCCCCCCCC4=C[C@H](C)OC4=O)O3)O2)C(=O)O1` (stereo not given in full), the TGI in experiment [1], in experiment [2], in experiment [3], in experiment [9], in experiment [4] and in [5] was > 100 µM throughout. Further, the TGI in [6] is > 100 µM; in experiment [7], > 100 µM; in experiment [8], 52.6 µM.
In the case of `Brc1ccc(N=c2nc3ccccn3n3nc(-c4ccccc4)cc23)cc1`, the TGI in experiment [1] is 59.9 µM; in experiment [2], > 100 µM; in [3] it was > 100 µM; in experiment [4] it was > 100 µM; in experiment [5] it was > 100 µM; in experiment [6] it was 51.1 µM. The TGI in experiment [7] and in [8] was > 100 µM in each case.
